Results on six compounds are retold here after ChEMBL document CHEMBL1140238, “Synthesis of selective SRPK-1 inhibitors: novel tricyclic quinoxaline derivatives” (Bioorg Med Chem Lett, 2005).

As a reminder, the inhibition is the change of the read-out against control, counted positive when it falls. The logP is a log measure of how a compound divides between an organic and an aqueous phase. A lower logP goes with lower lipophilicity.

Data set [1] concerns the target Epidermal growth factor receptor (Homo sapiens) (UniProt P00533). To be noted: 10 uM.
In data set [2] the target is Proto-oncogene tyrosine-protein kinase Src (Homo sapiens) (UniProt P12931). In words: In vitro percent inhibition of c-Src tyrosine kinase at 10 uM concentration of compound dissolved in 100% DMSO using 5''-[gamma-33P]-triphosphate.
In data set [3] the target is Ribosomal protein S6 kinase (P70S6K) (Homo sapiens) (UniProt Q9UBS0+P23443). In words: In vitro percent inhibition of Ribosomal protein S6 kinase at 10 uM concentration of compound dissolved in 100% DMSO using 5''-[gamma-33P]-triphosphate. In kind it is protein-complex assay.
The target in data set [4] is RAF proto-oncogene serine/threonine-protein kinase (Homo sapiens) (UniProt P04049). As to the kind of experiment: In vitro percent inhibition of RAF proto-oncogene serine/threonine-protein kinase at 10 uM concentration of compound dissolved in 100% DMSO using 5''-[gamma-33P]-triphosphate.
The target in data set [5] is Mast/stem cell growth factor receptor Kit (Homo sapiens) (UniProt P10721). As to the kind of experiment: In vitro percent inhibition of v-kit Hardy-Zuckerman 4 feline sarcoma viral oncogene homolog at 10 uM concentration of compound dissolved in 100% DMSO using 5''-[gamma-33P]-triphosphate.
Sequence of Mast/stem cell growth factor receptor Kit (Homo sapiens) (P10721 whole entry): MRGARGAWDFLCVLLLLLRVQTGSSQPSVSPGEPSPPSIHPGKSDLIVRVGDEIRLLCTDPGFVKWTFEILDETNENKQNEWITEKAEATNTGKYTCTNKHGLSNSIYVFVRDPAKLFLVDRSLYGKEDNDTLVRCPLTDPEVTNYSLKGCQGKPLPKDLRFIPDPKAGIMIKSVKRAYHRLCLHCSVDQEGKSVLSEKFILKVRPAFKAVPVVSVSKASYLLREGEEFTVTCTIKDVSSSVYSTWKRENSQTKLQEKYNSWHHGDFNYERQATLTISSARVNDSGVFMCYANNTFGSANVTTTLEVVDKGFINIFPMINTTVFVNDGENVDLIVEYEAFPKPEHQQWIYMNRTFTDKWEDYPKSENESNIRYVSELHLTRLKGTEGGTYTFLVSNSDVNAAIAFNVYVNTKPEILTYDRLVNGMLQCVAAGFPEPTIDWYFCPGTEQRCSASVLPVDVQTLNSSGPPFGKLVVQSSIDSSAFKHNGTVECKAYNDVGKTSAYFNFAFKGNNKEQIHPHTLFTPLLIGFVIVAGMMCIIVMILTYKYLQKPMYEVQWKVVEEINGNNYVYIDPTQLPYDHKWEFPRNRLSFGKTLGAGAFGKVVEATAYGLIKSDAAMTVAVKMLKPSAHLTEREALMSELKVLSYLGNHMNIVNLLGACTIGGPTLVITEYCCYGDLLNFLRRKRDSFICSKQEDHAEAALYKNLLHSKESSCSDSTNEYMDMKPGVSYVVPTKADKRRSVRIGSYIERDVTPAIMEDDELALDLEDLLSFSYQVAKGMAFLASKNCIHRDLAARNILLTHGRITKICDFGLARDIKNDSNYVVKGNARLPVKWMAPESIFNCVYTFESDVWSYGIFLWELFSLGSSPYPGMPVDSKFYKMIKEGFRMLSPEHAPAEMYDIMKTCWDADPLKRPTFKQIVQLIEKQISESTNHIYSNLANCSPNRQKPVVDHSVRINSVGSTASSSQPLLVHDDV
Data set [6] has as its target T1, Inhibitor of nuclear factor kappa-B kinase subunit beta (Homo sapiens) (UniProt O14920).
T1 sequence (whole entry): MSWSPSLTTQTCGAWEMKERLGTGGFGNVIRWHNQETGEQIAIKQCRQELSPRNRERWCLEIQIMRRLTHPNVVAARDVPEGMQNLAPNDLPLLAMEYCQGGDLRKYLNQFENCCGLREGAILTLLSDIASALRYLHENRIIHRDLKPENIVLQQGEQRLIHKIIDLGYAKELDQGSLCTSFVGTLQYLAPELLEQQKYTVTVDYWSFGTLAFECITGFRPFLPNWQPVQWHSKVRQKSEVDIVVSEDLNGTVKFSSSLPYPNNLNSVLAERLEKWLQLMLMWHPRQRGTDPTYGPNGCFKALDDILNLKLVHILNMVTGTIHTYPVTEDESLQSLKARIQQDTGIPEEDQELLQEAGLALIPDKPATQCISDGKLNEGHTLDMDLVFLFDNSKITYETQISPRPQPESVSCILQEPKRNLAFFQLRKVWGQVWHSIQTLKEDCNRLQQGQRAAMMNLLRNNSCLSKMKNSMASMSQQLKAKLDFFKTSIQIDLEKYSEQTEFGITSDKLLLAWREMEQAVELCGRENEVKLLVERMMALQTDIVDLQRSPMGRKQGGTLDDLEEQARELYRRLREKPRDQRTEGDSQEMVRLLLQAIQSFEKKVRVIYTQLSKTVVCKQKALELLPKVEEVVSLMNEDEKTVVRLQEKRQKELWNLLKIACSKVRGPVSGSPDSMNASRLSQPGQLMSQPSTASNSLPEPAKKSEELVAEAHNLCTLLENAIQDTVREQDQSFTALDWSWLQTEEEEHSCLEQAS
In words: In vitro percent inhibition of I-kappa-B-kinase beta at 10 uM concentration of compound dissolved in 100% DMSO using 5''-[gamma-33P]-triphosphate.

A short description of data set [7]: In vitro percent inhibition of Ribosomal S6 kinase 1 at 10 uM concentration of compound dissolved in 100% DMSO using 5''-[gamma-33P]-triphosphate.
Data set [8] deals with Casein kinase I isoform alpha (Homo sapiens) (UniProt P48729). As to the kind of experiment: In vitro percent inhibition of Casein kinase 1 alpha at 10 uM concentration of compound dissolved in 100% DMSO using 5''-[gamma-33P]-triphosphate.
For data set [9], the target named is Rho-associated protein kinase 2 (Homo sapiens) (UniProt O75116). In words: In vitro percent inhibition of Protein kinase ROCK2 at 10 uM concentration of compound dissolved in 100% DMSO using 5''-[gamma-33P]-triphosphate.
Sequence of Rho-associated protein kinase 2 (Homo sapiens) (O75116 whole entry, looked up): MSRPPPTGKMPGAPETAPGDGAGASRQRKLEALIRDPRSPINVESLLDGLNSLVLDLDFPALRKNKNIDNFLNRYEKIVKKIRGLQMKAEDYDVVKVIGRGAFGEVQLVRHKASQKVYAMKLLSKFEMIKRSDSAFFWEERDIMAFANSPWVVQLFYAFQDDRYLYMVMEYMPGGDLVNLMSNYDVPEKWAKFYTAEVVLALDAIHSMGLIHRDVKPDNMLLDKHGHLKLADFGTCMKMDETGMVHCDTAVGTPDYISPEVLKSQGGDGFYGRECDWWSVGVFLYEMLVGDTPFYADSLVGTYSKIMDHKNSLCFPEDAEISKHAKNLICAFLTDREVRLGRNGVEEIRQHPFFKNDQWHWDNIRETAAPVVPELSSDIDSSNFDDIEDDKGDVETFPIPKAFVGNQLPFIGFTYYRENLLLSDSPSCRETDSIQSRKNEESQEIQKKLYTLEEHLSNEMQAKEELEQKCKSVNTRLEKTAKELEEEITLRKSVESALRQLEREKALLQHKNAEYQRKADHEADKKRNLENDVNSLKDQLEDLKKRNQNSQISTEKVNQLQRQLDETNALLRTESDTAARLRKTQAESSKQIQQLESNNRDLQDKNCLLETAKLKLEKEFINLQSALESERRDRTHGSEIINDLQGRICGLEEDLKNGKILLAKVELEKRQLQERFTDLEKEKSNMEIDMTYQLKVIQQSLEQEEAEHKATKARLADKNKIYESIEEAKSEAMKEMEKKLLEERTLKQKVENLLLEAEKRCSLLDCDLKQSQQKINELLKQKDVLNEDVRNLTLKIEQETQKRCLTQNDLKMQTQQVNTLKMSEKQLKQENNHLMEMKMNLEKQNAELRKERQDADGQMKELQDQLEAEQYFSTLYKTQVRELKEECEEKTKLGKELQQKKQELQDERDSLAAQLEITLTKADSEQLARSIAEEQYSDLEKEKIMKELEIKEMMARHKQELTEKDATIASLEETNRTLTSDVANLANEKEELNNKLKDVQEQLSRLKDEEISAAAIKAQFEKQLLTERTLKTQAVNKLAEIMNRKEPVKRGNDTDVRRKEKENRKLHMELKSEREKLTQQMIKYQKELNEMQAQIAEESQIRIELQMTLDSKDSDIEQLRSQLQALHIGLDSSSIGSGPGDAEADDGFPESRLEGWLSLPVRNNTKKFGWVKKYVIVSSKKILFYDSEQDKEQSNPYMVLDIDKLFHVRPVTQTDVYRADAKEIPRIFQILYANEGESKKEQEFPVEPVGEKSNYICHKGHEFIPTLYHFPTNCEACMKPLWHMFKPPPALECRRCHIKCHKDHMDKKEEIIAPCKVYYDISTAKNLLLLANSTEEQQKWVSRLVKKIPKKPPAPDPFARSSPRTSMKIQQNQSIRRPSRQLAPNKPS
In a further data set the test system is SRPK1 (Homo sapiens). In words: In vitro inhibition of SR protein kinase 1 by compound dissolved in 100% DMSO using 5''-[gamma-33P]-triphosphate; n.a. - not active.
Data set [10] concerns the target T2, Tyrosine-protein kinase transforming protein Abl (Abelson murine leukemia virus) (UniProt P00521).
T2 sequence (whole entry): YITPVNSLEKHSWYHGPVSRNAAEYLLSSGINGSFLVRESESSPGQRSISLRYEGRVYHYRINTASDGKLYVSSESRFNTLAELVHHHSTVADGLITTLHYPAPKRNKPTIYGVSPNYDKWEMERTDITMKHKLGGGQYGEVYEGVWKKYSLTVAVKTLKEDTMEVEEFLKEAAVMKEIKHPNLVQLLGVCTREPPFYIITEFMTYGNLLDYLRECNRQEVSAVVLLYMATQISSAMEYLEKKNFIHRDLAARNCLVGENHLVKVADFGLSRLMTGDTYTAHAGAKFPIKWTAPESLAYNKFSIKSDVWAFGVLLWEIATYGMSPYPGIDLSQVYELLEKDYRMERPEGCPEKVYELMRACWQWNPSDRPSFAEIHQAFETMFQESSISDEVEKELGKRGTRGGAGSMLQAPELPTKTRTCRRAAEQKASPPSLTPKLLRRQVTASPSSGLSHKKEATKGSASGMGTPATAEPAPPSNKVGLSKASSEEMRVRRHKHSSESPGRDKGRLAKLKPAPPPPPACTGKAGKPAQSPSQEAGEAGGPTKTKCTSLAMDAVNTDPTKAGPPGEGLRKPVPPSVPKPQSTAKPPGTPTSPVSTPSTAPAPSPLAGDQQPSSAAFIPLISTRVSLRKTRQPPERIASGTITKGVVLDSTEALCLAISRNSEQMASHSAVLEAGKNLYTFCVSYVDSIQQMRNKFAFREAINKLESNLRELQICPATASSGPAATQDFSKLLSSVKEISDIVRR
In words: In vitro percent inhibition of v-Abl tyrosine kinase at 10 uM concentration of compound dissolved in 100% DMSO using 5''-[gamma-33P]-triphosphate.

Data set [11] in a line: Partition coefficient (logP). The data set is classed as physicochemical. The settings on record: octanol/water.
Data set [12] in a line: In vitro percent inhibition of Cyclin-dependent kinase 2-cyclin A at 10 uM concentration of compound dissolved in 100% DMSO using 5''-[gamma-33P]-triphosphate.
Data set [13] addresses Hepatocyte growth factor receptor (Homo sapiens) (UniProt P08581). In words: In vitro percent inhibition of Met proto-oncogene tyrosine kinase at 10 uM concentration of compound dissolved in 100% DMSO using 5''-[gamma-33P]-triphosphate.
Data set [14] deals with Insulin receptor (Homo sapiens) (UniProt P06213). As to the kind of experiment: In vitro percent inhibition of Insulin receptor at 10 uM concentration of compound dissolved in 100% DMSO using 5''-[gamma-33P]-triphosphate.
Data set [15] concerns the target Tyrosine-protein kinase Lck (Homo sapiens) (UniProt P06239). In words: In vitro percent inhibition of p56 Lck tyrosine kinase at 10 uM concentration of compound dissolved in 100% DMSO using 5''-[gamma-33P]-triphosphate.
Data set [16] deals with Mitogen-activated protein kinase 3 (Homo sapiens) (UniProt P27361). As to the kind of experiment: In vitro percent inhibition of Mitogen-activated protein kinase 3 at 10 uM concentration of compound dissolved in 100% DMSO using 5''-[gamma-33P]-triphosphate.
Sequence of Mitogen-activated protein kinase 3 (Homo sapiens) (P27361 whole entry): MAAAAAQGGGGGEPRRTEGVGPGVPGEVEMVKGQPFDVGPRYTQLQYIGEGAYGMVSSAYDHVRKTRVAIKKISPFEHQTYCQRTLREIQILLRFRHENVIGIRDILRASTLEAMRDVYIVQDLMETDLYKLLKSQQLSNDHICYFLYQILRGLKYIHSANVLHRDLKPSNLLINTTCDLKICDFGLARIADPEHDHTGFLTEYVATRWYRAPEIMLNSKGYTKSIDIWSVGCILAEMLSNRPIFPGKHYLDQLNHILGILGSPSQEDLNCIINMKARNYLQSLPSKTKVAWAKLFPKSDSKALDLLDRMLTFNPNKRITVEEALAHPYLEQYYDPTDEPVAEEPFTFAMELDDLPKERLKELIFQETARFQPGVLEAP
Data set [17] concerns the target Platelet-derived growth factor receptor beta (Homo sapiens) (UniProt P09619). As to the kind of experiment: In vitro percent inhibition of Platelet-derived growth factor receptor, beta polypeptide at 10 uM concentration of compound dissolved in 100% DMSO using 5''-[gamma-33P]-triphosphate.
In data set [18] the target is Mitogen-activated protein kinase 8 (Homo sapiens) (UniProt P45983). As to the kind of experiment: In vitro percent inhibition of c-Jun N-terminal kinase 1-alpha 1 at 10 uM concentration of compound dissolved in 100% DMSO using 5''-[gamma-33P]-triphosphate.
The target in data set [19] is Glycogen synthase kinase-3 beta (Homo sapiens) (UniProt P49841). As to the kind of experiment: In vitro percent inhibition of Glycogen synthase kinase 3 beta at 10 uM concentration of compound dissolved in 100% DMSO using 5''-[gamma-33P]-triphosphate.
Sequence of Glycogen synthase kinase-3 beta (Homo sapiens) (P49841 whole entry, looked up): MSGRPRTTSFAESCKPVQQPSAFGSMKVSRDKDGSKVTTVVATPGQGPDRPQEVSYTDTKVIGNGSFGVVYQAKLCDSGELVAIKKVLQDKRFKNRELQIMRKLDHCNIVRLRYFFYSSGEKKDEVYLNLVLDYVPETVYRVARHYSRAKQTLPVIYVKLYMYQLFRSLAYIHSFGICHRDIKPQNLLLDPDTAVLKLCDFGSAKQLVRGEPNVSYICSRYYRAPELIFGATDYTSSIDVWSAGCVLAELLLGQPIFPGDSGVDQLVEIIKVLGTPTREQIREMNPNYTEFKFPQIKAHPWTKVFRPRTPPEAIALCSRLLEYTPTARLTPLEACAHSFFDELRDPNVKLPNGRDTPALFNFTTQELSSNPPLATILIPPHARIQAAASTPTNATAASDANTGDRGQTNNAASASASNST
In data set [20] the target is RAC-alpha serine/threonine-protein kinase (Homo sapiens) (UniProt P31749). As to the kind of experiment: In vitro percent inhibition of Protein kinase B, alpha at 10 uM concentration of compound dissolved in 100% DMSO using 5''-[gamma-33P]-triphosphate.

Sequence of Tyrosine-protein kinase Lck (Homo sapiens) (P06239 2-509 limits assumed): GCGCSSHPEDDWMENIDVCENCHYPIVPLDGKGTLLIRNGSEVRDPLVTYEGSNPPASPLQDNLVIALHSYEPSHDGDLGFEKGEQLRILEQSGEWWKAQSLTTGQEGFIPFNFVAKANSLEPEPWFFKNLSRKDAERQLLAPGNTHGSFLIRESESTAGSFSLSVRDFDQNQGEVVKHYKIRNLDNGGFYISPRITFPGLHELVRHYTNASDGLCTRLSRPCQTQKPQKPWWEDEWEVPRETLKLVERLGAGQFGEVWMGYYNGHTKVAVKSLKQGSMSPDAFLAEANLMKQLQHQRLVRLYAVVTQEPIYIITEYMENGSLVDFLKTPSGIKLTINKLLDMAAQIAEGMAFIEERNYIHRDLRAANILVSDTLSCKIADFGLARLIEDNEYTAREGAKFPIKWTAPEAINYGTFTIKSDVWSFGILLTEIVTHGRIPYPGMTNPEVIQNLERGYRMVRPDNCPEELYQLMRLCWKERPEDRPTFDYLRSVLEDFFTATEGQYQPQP
Sequence of Hepatocyte growth factor receptor (Homo sapiens) (P08581 whole entry): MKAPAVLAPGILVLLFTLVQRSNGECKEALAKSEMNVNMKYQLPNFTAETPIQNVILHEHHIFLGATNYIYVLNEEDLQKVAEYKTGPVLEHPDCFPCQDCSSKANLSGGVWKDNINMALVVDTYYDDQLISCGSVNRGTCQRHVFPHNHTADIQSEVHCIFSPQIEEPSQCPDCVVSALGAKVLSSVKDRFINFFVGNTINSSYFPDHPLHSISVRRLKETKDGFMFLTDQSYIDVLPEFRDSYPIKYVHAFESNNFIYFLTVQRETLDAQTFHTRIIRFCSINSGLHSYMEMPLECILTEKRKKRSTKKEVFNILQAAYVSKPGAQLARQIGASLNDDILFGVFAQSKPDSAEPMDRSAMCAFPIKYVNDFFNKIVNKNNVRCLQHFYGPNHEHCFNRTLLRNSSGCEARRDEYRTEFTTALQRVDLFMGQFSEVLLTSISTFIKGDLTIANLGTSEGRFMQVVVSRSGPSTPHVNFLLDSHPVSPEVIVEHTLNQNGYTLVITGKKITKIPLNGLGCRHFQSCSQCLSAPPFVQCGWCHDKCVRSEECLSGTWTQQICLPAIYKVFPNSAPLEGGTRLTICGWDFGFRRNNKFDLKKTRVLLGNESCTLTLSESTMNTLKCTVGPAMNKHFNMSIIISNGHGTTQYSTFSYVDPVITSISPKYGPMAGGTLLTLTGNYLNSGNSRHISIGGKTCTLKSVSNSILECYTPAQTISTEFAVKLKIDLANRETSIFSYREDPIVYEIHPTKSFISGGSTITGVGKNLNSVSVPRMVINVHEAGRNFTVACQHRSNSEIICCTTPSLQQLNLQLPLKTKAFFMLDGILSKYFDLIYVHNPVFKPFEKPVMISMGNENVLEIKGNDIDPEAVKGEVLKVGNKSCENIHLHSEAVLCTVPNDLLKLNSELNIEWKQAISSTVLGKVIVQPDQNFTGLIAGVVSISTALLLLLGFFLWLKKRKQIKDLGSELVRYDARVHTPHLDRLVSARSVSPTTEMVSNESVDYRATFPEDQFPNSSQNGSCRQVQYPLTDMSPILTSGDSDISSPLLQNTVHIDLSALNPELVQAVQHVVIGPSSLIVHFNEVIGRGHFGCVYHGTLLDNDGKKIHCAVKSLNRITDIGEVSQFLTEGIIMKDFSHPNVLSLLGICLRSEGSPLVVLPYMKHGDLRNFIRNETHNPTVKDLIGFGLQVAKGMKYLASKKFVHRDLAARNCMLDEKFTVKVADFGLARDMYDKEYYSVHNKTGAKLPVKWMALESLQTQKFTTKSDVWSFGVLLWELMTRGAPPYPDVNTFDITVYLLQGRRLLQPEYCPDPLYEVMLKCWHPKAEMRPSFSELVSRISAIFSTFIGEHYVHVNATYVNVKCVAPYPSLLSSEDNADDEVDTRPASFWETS

As to `c1csc(-c2nc3cc4c(cc3nc2-c2cccs2)OCCCO4)c1`, the inhibition in [1] is 26%; in [2], 75%; in [3] it was 2%; in data set [4], -5%; in data set [5] it was 22%; in data set [6], 22%. Also, the inhibition in [7] was 17%; in data set [8] it was -5%; in data set [9], 32%; in [10], 10%; in data set [12], -7%; in data set [13] it was 27%. Further, the inhibition came to 34% in [14]; 39% in data set [15]; 21% in data set [16]; 24% in data set [17]; 15% in data set [18]. The IC50 result in the data set on SRPK1 (Homo sapiens) is given as “Not Active”. In addition, the logP in [11] is 5.
In the case of `c1csc(-c2nc3cc4c(cc3nc2-c2cccs2)OCO4)c1`, the inhibition in data set [1] came out at 35%; in [2] it was 71%; in data set [3], 6%; in [4], 21%; in data set [5], 38%; in data set [6] it was 28%. Also, the inhibition in data set [7] was 1%; in data set [8] it was 9%; in data set [9], 31%; in data set [10] it was 14%; in [12] it was -4%; in data set [13], 34%. Moreover, the inhibition in [14] was 29%; in [19], -1%; in data set [20] it was -6%; in data set [15] it was 41%; in data set [16], 14%; in data set [17], 54%. Besides, in data set [18], the inhibition is 18%. The log partition coefficient (logP) in [11] was determined as 4.8.
In the case of `O=C(O)Cc1ccc(-c2nc3cc4ccccc4cc3nc2-c2ccc(CC(=O)O)s2)s1`, the inhibition in data set [1] was determined as 52%; in [2], 14%; in data set [3], 17%; in data set [4], 39%; in data set [5] it was 15%; in data set [6] it was 25%. For the same compound, the inhibition was 23% in data set [7]; -2% in [8]; 5% in data set [9]; 10% in data set [10]; 8% in [12]; 27% in data set [13]. Moreover, the inhibition in data set [14] is 5%; in data set [19], 47%; in data set [20] it was 15%; in data set [15] it was -9%; in [16], 52%; in data set [17], 10%. For the same compound, the inhibition in data set [18] is -3%. Besides, in data set [11], the lipophilicity (logP) was 3.3.
`O=C(O)CCc1ccc(-c2nc3cc4ccccc4cc3nc2-c2ccc(CCC(=O)O)s2)s1`: the inhibition in [1] is 40%; in [2], 70%; in data set [3], 29%; in data set [4] it was 18%; in data set [5], 52%; in data set [6] it was 54%. In addition, the inhibition in data set [7] was 30%; in [8] it was 40%; in data set [9] it was 18%; in data set [10] it was 3%; in data set [12], -4%; in [13], 32%. The inhibition in [14] is -5%; in data set [19] it was 23%; in data set [20], 0%; in data set [15], -3%; in [16], 11%; in [17], 49%. Moreover, in data set [18], the inhibition was -5%. The log partition coefficient (logP) in data set [11] was found to be 4.28.
Take `Oc1cc2nc(-c3cccs3)c(-c3cccs3)nc2cc1O`: the inhibition is 25% in data set [1]; -3% in data set [2]; -8% in [3]; 3% in data set [4]; -7% in data set [5]; 3% in data set [6]. The inhibition in data set [7] is 6%; in data set [8], 9%; in data set [10] it was 1%; in data set [12] it was 7%; in [13], 0%; in data set [14], -4%. For the same compound, the inhibition was 5% in data set [19]; -7% in data set [20]; 1% in [15]; 25% in [16]; -3% in data set [18]. In data set [11], this compound displayed a logP of 4.2.
For the compound `COC(=O)CCCc1ccc(-c2nc3cc4ccccc4cc3nc2-c2ccc(CCCC(=O)OC)s2)s1`, the inhibition was 8% in data set [1]; -7% in data set [3]; 42% in data set [4]; 5% in data set [5]; 16% in data set [6]; 38% in data set [7]. Also, the inhibition turned out to be 30% in data set [8]; 5% in data set [9]; 15% in [10]; 25% in data set [12]; 12% in data set [13]; 24% in [19]. Moreover, the inhibition is -6% in data set [20]; 2% in [15]; 8% in data set [16]; 47% in data set [17]; 9% in data set [18]. Also, the IC50 entry in the data set with SRPK1 (Homo sapiens) is given as “Not Active”. In addition, the logP in data set [11] turned out to be 5.5.
